Data set [1] deals with PSEUDOMONAS AERUGINOSA BMH10. The data set is described as follows: In vitro antibacterial activity, agar dilution MIC (BHIA). The format is cell-based. The conditions noted are these: 18 h. For orientation: In agar dilution, organisms are placed on agar that contains the substance at set levels.
A further data set concerns STR[…] 508. The data set is described as above. The format is cell-based. The following applies: Streptococcus agalactiae, 18 h. An excerpt: (§1) The MIC results are in ug/ml. TABLE VII
The subject of a further data set is M[…] ATCC 4698. The description is as above. The format is cell-based. The following applies: Micrococcus luteus, ATCC4698, 18 h.
Description: as §1

The next data set has as its system P[…] 296I. The description is as above. The format is cell-based. The following applies: Burkholderia cepacia, 18 h.
Description: as §1

In another data set the test system is EN[…] ATCC 8043. The description is as above. The format is cell-based. The conditions noted are these: Enterococcus faecium, ATCC8043, 18 h.
Description: as §1

The subject of a further data set is STR[…] EES61. The description is as above. The format is cell-based. The following applies: Streptococcus pyogenes, 18 h.
Description: as §1

For another data set, the system named is M[…] ATCC 9341. The description is as above. The format is cell-based. The following applies: Micrococcus luteus, ATCC9341, 18 h.
Description: as §1

In data set [2] the test system is PROVIDENCIA STUARTII CMX 640. Described as above. The format is cell-based. The conditions noted are these: 18 h.
Data set [3] concerns STREPTOCOCCUS PYOGENES 930 CONST. The description is as above. The format is cell-based. The conditions noted are these: 18 h.
For another data set, the system named is STR[…] 2548 INDUC. Described as above. The format is cell-based. The following applies: Streptococcus pyogenes, 18 h.
For a further data set, the system named is ESCHERICHIA COLI KNK 437. The data set is described as above. The format is cell-based. The following applies: Brain Heart Infusion Agar (BHIA), 36° C, 18 h, strain KNK 437.
The next data set concerns ESCHERICHIA COLI DC-2. Described as above. The format is cell-based. The following applies: 18 h.
The subject of a further data set is ACINETOBACTER SP CMX 669. Described as above. The following applies: 18 h. The format is cell-based.
The test system of a further data set is ESCHERICHIA COLI SS. Described as above. The conditions noted are these: Brain Heart Infusion Agar (BHIA), 36° C, 18 h, strain SS. The format is cell-based.
A further data set has as its system ESCHERICHIA COLI H560. The data set is described as above. The conditions noted are these: 18 h. The format is cell-based.
Data set [4] relates to KLEBSIELLA PNEUMONIAE ATCC 8045. Described as above. The format is cell-based.
Data set [5] deals with STREPTOCOCCUS BOVIS A5169. Described as above. The format is cell-based. The conditions noted are these: Streptococcus equinus, 18 h.
Data set [6] deals with ENTEROBACTER AEROGENES ATCC 13048. The experiment in a line: In vitro antibacterial activity, agar dilution MIC (BHIA). The format is cell-based. The following applies: Klebsiella aerogenes.
Data set [7] deals with PSEUDOMONAS AERUGINOSA K799/61. The data set is described as above. The format is cell-based. The following applies: Brain Heart Infusion Agar (BHIA), 36° C, 18 h, strain K799/61.
Another data set deals with ESCHERICHIA COLI JUHL. Described as above. The format is cell-based. The following applies: 18 h.
The test system of data set [8] is PSEUDOMONAS AERUGINOSA K799/WT. The description is as above. The conditions noted are these: Brain Heart Infusion Agar (BHIA), 36° C, 18 h, strain K799/WT. The format is cell-based.
Description: as §1

The nature of data set [9]: Plasma level in dog after oral dose. The format is in vivo. The conditions noted are these: 10 mg/kg, 10 mg equivalent/kg oral dose, HPLC.
Description: The plasma samples were collected and determined by the HPLC analysis.
Data set [10] deals with PSEUDOMONAS AERUGINOSA A5007. The experiment in a line: In vitro antibacterial activity, agar dilution MIC (BHIA). The following applies: Brain Heart Infusion Agar (BHIA), 36° C, 18 h, strain A5007. The format is cell-based.
Description: as §1

[11] abbreviates: Brain Heart Infusion Agar (BHIA), 36° C, strain BMH10, read-out: MIC.
Setting [12] is: Brain Heart Infusion Agar (BHIA), 36° C, strain CMX 669, read-out: MIC.
Setting [13] is: ATCC8045, Brain Heart Infusion Agar (BHIA), 36° C, 18 h, strain ATCC 8045, read-out: MIC.
The mark [14] stands for this setting: ATCC13048, Brain Heart Infusion Agar (BHIA), 36° C, 18 h, strain ATCC 13048, read-out: MIC.
[15] abbreviates: Brain Heart Infusion Agar (BHIA), 36° C, strain JUHL, read-out: MIC.
Setting [16] is: Brain Heart Infusion Agar (BHIA), 36° C, strain CMX 640, read-out: MIC.
The mark [17] stands for this setting: Brain Heart Infusion Agar (BHIA), 36° C, strain A5169, read-out: MIC.

Values after ≈ are worked out from the molar mass of the structure shown. Counter-ions that a name gives are not always drawn. Like-named read-outs stand apart in the source and are kept apart here. Some results are limits rather than exact numbers.

For orientation: MIC means the lowest concentration found to suppress growth. By solubility is commonly meant how much of the substance goes into solution per volume. With `NCC(=O)N[C@@H](Cc1ccccc1)C(=O)NC1CCN(c2nc3c(cc2F)c(=O)c(C(=O)O)cn3-c2ccc(F)cc2F)C1` (stereo partly drawn) [Example 1b, 7-[(3-Gly-L-Phe-amino)-1-pyrrolidinyl]-1-(2,4-difluorophenyl)-6-fluoro-1,4-dihydro-4-oxo-1,8-naphthyridine-3-carboxylic acid hydrochloride], the MIC is 25 µg/mL in data set [1] (setting [11]); 1.56 µg/mL against STR[…] 508; 0.78 µg/mL with M[…] ATCC 4698; 50 µg/mL in the data set with P[…] 296I; 1.56 µg/mL in the data set with EN[…] ATCC 8043; 1.56 µg/mL against STR[…] EES61. Besides, the minimal inhibitory concentration (MIC) was 6.25 µg/mL in the data set with M[…] ATCC 9341; 100 µg/mL in [2]; 0.78 µg/mL in data set [3]; 0.78 µg/mL in the data set on STR[…] 2548 INDUC; 25 µg/mL against ESCHERICHIA COLI KNK 437; 100 µg/mL in the data set on ESCHERICHIA COLI DC-2. In addition, the minimum inhibitory concentration (MIC) in the data set with ACINETOBACTER SP CMX 669 (setting [12]) was found to be 12.5 µg/mL; against ESCHERICHIA COLI SS it was 0.2 µg/mL; against ESCHERICHIA COLI H560, 1.56 µg/mL; in [4] (setting [13]), 12.5 µg/mL; in data set [5], 1.56 µg/mL; in data set [6] (setting [14]), 12.5 µg/mL. For the same compound, the values for the MIC (in data set [7]; in the data set with ESCHERICHIA COLI JUHL (setting [15])) were 12.5 µg/mL and 3.12 µg/mL, respectively. Moreover, the figures for the solubility in the data set “physchem” (pH 7.4) and in “physchem” (water) were 1040 µg/mL and > 98000 µg/mL, respectively.

In the case of `CC(N)C(=O)NC(C)C(=O)NC1CCN(c2nc3c(cc2F)c(=O)c(C(=O)O)cn3-c2ccc(F)cc2F)C1` (centres unmarked) [Example 15], the MIC in [1] (setting [11]) came to 100 µg/mL (≈ 183 µM); in [8], 50 µg/mL (≈ 91.5 µM); against STR[…] 508 it was 12.5 µg/mL (≈ 22.9 µM); in the data set with M[…] ATCC 4698 it was 100 µg/mL (≈ 183 µM); in the data set with P[…] 296I, 50 µg/mL (≈ 91.5 µM); in the data set with EN[…] ATCC 8043, 50 µg/mL (≈ 91.5 µM). Further, the minimal inhibitory concentration (MIC) is 12.5 µg/mL (≈ 22.9 µM) with STR[…] EES61; > 100 µg/mL in the data set on M[…] ATCC 9341; 100 µg/mL (≈ 183 µM) in data set [2] (setting [16]); 12.5 µg/mL (≈ 22.9 µM) in [3]; 12.5 µg/mL (≈ 22.9 µM) with STR[…] 2548 INDUC; 50 µg/mL (≈ 91.5 µM) against ESCHERICHIA COLI KNK 437. Moreover, the MIC in the data set on ESCHERICHIA COLI DC-2 (Brain Heart Infusion Agar (BHIA), 36° C, strain DC-2, read-out: MIC) was 100 µg/mL (≈ 183 µM); in the data set with ACINETOBACTER SP CMX 669, 12.5 µg/mL (≈ 22.9 µM); against ESCHERICHIA COLI SS it was 0.39 µg/mL (≈ 0.714 µM); with ESCHERICHIA COLI H560 (Brain Heart Infusion Agar (BHIA), 36° C, strain H560, read-out: MIC), 6.2 µg/mL (≈ 11.3 µM); in [4] (ATCC8045, 18 h), 12.5 µg/mL (≈ 22.9 µM); in [5] (setting [17]) it was 50 µg/mL (≈ 91.5 µM). Further, the MIC in data set [6] (setting [14]) is 25 µg/mL (≈ 45.7 µM); in data set [7], 3.1 µg/mL (≈ 5.67 µM); in the data set with ESCHERICHIA COLI JUHL it was 12.5 µg/mL (≈ 22.9 µM). Further, the solubility was 1070 µg/mL (≈ 1960 µM) in “physchem” (pH 7.4) and > 70000 µg/mL in “physchem” (water).

Usually AUC(0-t) stands for the area under the concentration-time curve up to a stated or last time point. Turning to `NC1CCN(c2nc3c(cc2F)c(=O)c(C(=O)O)cn3-c2ccc(F)cc2F)C1` (centres unmarked) [tosufloxacin, 7-(3-amino-1-pyrrolidinyl)-6-fluoro,1-(2,4-difluorophenyl)-1,4-dihydro-4-oxo-1,8-naphthyridine-3-carboxylic acid, reference compound], the MIC in data set [1] (setting [11]) was 0.1 µg/mL (≈ 0.247 µM); in the data set on STR[…] 508, 0.39 µg/mL (≈ 0.965 µM); in the data set on STR[…] 2548 INDUC, 0.1 µg/mL (≈ 0.247 µM); with ESCHERICHIA COLI DC-2 it was 0.39 µg/mL (≈ 0.965 µM); in the data set on ACINETOBACTER SP CMX 669 (setting [12]) it was 0.1 µg/mL (≈ 0.247 µM); against ESCHERICHIA COLI SS it was 0.005 µg/mL (≈ 0.0124 µM). Further, the minimum inhibitory concentration (MIC) in [4] (setting [13]) turned out to be 0.02 µg/mL (≈ 0.0495 µM); in data set [5], 0.39 µg/mL (≈ 0.965 µM); in [6] (setting [14]), 0.05 µg/mL (≈ 0.124 µM); in the data set on ESCHERICHIA COLI JUHL (setting [15]) it was 0.02 µg/mL (≈ 0.0495 µM). Also, the solubility came to 10 µg/mL (≈ 24.7 µM) in the data set “physchem” (pH 7.4) and 650 µg/mL (≈ 1610 µM) in the data set “physchem” (water). Besides, the AUC(0-t) at 32 h in [9] stood at 5300 ng·h/mL. The Cmax in [9] (read-out: C max (range)) was determined as 670 ng/mL.

As to `NC(Cc1ccccc1)C(=O)NC1CCN(c2nc3c(cc2F)c(=O)c(C(=O)O)cn3-c2ccc(F)cc2F)C1` (centres unmarked) [Example 5], the minimum inhibitory concentration (MIC) is 25 µg/mL (≈ 45.3 µM) in [1]; 25 µg/mL (≈ 45.3 µM) in data set [8]; 3.1 µg/mL (≈ 5.62 µM) against STR[…] 508; 12.5 µg/mL (≈ 22.7 µM) in the data set on M[…] ATCC 4698; > 100 µg/mL in the data set on P[…] 296I; 3.1 µg/mL (≈ 5.62 µM) against EN[…] ATCC 8043. The MIC is 3.1 µg/mL (≈ 5.62 µM) in the data set with STR[…] EES61; 50 µg/mL (≈ 90.7 µM) in data set [10]; 25 µg/mL (≈ 45.3 µM) in the data set with M[…] ATCC 9341; > 100 µg/mL in data set [2] (setting [16]); 1.56 µg/mL (≈ 2.83 µM) in [3] (Brain Heart Infusion Agar (BHIA), 36° C, strain 930 CONST, read-out: MIC); 0.78 µg/mL (≈ 1.41 µM) in the data set with STR[…] 2548 INDUC. For the same compound, the MIC against ESCHERICHIA COLI KNK 437 came to 100 µg/mL (≈ 181 µM); against ESCHERICHIA COLI DC-2, 50 µg/mL (≈ 90.7 µM); with ACINETOBACTER SP CMX 669, 12.5 µg/mL (≈ 22.7 µM); in the data set with ESCHERICHIA COLI SS, 0.1 µg/mL (≈ 0.181 µM); against ESCHERICHIA COLI H560, 3.1 µg/mL (≈ 5.62 µM); in [4] (setting [13]), 1.56 µg/mL (≈ 2.83 µM). Besides, the MIC worked out at 6.2 µg/mL (≈ 11.2 µM) in [5] (setting [17]); 12.5 µg/mL (≈ 22.7 µM) in data set [6] (ATCC13048, 18 h); 1.56 µg/mL (≈ 2.83 µM) in data set [7]; 3.1 µg/mL (≈ 5.62 µM) against ESCHERICHIA COLI JUHL. Moreover, the solubility is 340 µg/mL (≈ 616 µM) in the data set “physchem” (pH 7.4) and > 101000 µg/mL in “physchem” (water).
